Measurements published in patent US12692471B2, “High aspect ratio devices and methods for vitrification of biological samples by rapid cooling” (The General Hospital Corporation, priority 2020, dated 2026).

Assays:
C. parvum oocysts [1] = experiment: In vitro infectivity of oocysts in MDBK cells; assay type: cell-based, Cryptosporidium parvum
Method: All CPA cocktails described in FIG. 2A were further tested for infectivity in the in vitro model of epithelial cell infection using MDBK cells. Twenty thousand cells were seeded into each well of a 96-well culturing plate (Falcon) and maintained for two days to reach confluence (defined at 4×10^4/well). Oocysts were prepared for infection by bleaching and incubation with CPA cocktail as described above. After removal of diluted CPA in excess PBS, the oocyst pellet was resuspended in 50 μL of 0.75% sodium taurocholate (Sigma) and incubated at 37° C. for 15 min to prompt excystation. Pre-excysted oocysts were then added onto confluent cell monolayers at MOI 1:3. After 24-h co-incubation of parasite with cell monolayer, cultures were washed with PBS to remove extracellular stages of parasite, permeabilized with 100% methanol for 10 min at room temperature and then washed again with PBS. After fixation, cells were blocked with 10% FBS for 30 min and then incubated with fluorescein-labeled Vicia villosa lectin (Vector Laboratories) at concentration […] for 30 min to visualize intracellular stages of the parasite. After the final wash with PBS, monolayers were inspected with a Nikon ECLIPSE® Ti-E microscope (Nikon Instruments Inc.). Four images were taken of each well at 200× magnification using a FITC filter at 100 ms exposure. The number of fluorescing infection foci was then counted by ImageJ 1.48v particle analyzer using the following settings: triangle threshold 15-255, size exclusion at 10-1,000 pixel^2 and circularity at 0.1-1.0. Results depicted in FIG. 2B are expressed as percent infectivity of the control oocysts, which were treated with PBS in place of CPA.
(§1) Bleached (20%) C. parvum oocysts at 1-2, 6 and 12 weeks of age were cryopreserved as described above using a two-step DMSO addition protocol, such that final concentration of 0.5 M trehalose/50% DMSO was achieved. […] Pre-freeze and post-freeze oocyst viability was measured by PI exclusion at 10 μg/mL using flow cytometry and by an in vitro infectivity assay. […]

IFN-γ knockout mice = experiment: In vivo infectivity of cryopreserved oocysts
Method: C. parvum oocysts at 2, 6 and 12 weeks of age were bleached (20%) and cryopreserved in the vitrification cassettes as described above using a two-step DMSO addition protocol with final concentration of 0.5 M trehalose/50% DMSO. Infectivity of cryopreserved oocysts was evaluated in 8-week-old female IFN-γ knockout mice bred under pathogen-free conditions (Jackson Laboratory, Bar Harbor, ME, USA). All mice experiments were conducted in an AAALAC accredited institution in compliance with the study protocol No. G2017-107 approved by the Tufts University Institutional Animal Care and Use Committee in accordance with the Guide for the Care and Use of Laboratory Animals (National Research Council). Mice were randomly assigned into groups of three by a blinded animal caretaker, however the investigators were not blinded during this experiment.
The animal care, inoculation and monitoring procedures were performed as described elsewhere (Jaskiewicz et al., Cryopreservation of infectious Cryptosporidium parvum oocysts. Nat. Commun. 9, 2883 (2018)), with modifications. Mice were immunosuppressed throughout the course of the experiment by administration of dexamethasone in drinking water at concentration 10 mg/L. Three days after immunosuppressive treatment started, each mouse received 30,000 PI^− cryopreserved oocysts in PBS suspension by oral gavage. […] Mice negative for signs of infection were monitored until 11 DPI. Intensity of fecal shedding was measured daily by inspection of the acid-fast stained fecal smear slides, prepared from a single fecal pellet of approximately equal size, for presence of oocysts in 30 fields (1000×).
The animal experiments which produced negative cryopreservation outcome were performed as described above with exception of few procedural details. A summary table describing the different cryopreservation methods evaluated and the corresponding outcome can be found in Table 1. […]

C. parvum oocysts [2] = experiment: Oocyst viability by propidium iodide (PI) exclusion, flow cytometry; assay type: cell-based, Cryptosporidium parvum; conditions: for viability (PI exclusion): pre-freeze, 50% DMSO, 20% bleach condition
Method: To increase the intracellular concentration of CPA, oocysts were bleached with various concentrations of bleach-5% or 20% and then incubated with CPA cocktails consisting of trehalose (Sigma) and DMSO (Sigma) at different concentrations. Briefly, bleached oocysts were first dehydrated in 1.6 M or 1 M trehalose solution for 10 min and then incubated for another 5-15 min with DMSO achieving its final concentration of 30% or 50% (ambient conditions were used throughout). The DMSO/trehalose cocktail was then diluted by incubation with excess PBS (at ratio 1:100) for 30 min at room temperature and removed by centrifugation (18,000×g, 2 min). Cytotoxicity attributable to the CPA cocktail was measured by inclusion of PI (Sigma) at 10 μg/mL using flow cytometry (ACCURI® C6, BD Life Sciences) and was normalized to its control in PBS for each condition.
In an effort to maximize the concentration of intracellular and extracellular CPA without compromising oocyst viability, oocysts were gradually exposed to higher concentrations of DMSO by two-step addition. Here, 6-week-old bleached oocysts (5% or 20%) were first dehydrated in 1.6 M trehalose for 10 min. DMSO was added to achieve 0.8 M trehalose/30% DMSO solution and incubated for 5 min. The second addition of DMSO led to a final concentration of 0.5 M trehalose/50% DMSO and was incubated for 1 min. CPA cocktail was then diluted as described above. Cytotoxicity attributable to CPA cocktail was measured by inclusion of PI and was normalized to the untreated oocyst control in PBS.
as §1
For evaluation of cryopreservation in insemination straws and cryovials, pre-freeze and post-freeze viability was measured only by PI exclusion as described above.

[3] = 30% DMSO 5 min then 50% DMSO 1 min, compared with one-step at same overall concentration

## C[S+](C)[O-] [DMSO, dimethyl sulfoxide]
C. parvum oocysts [1]; [3]
  pre-freeze infectivity in vitro, two-step vs one-step DMSO addition: significantly increased
C. parvum oocysts [1]; pre-freeze, 50% DMSO, 5 min incubation, 20% bleach condition, percent of control oocysts in PBS
  in vitro infectivity: 38.7±17.0%
C. parvum oocysts [1]; pre-freeze, 50% DMSO, after 15 min or longer, 20% bleach condition
  infectivity (in vitro): 6.4±1.9%
IFN-γ knockout mice; Rectangular capillary, 2 weeks oocysts, trehalose 1.6M/0.8M, One-step 50% DMSO, 5 min, dose 10,000
  Infectivity in animals after thawing: No
IFN-γ knockout mice; Vitrification cassette, 2-12 weeks oocysts, trehalose 1.6M/0.5M, Two-step 30% DMSO/50% DMSO, 5 min/1 min, dose 30,000
  Infectivity in animals after thawing: Yes
IFN-γ knockout mice; Vitrification cassette, 6 weeks oocysts, trehalose 1.6M/0.8M, One-step 50% DMSO, 5 min, dose 10,000
  Infectivity in animals after thawing: No
C. parvum oocysts [2]; [3]
  pre-freeze viability, two-step vs one-step DMSO addition: significantly increased
C. parvum oocysts [2]; 5 min incubation
  viability (PI exclusion): 59.4±2.3%
C. parvum oocysts [2]; after 15 min or longer
  viability (PI exclusion): 17.5±5.0%
